In US20040014779A1, “Methods and compositions related to IRM compounds and toll-like recptor pathways” (3M Innovative Properties Company, priority 2001, published 2004):

Columns and labels:
TLR6 = biological target: T1, TLR6 (Homo sapiens, UniProt Q9Y2C9, P680H); assay: TNF-α production by THP-1 cells transfected with TLR6DN vs vector control; format: cell-based
T1 construct: expressed in transfected cells; host or cells: THP-1 (pIRES vector)
From the text: The human TLR6 dominant negative construct was generated from human PBMC cDNA using the same strategy as the murine TLR6 dominant negative. The proline to histidine mutation for human TLR6 was introduced at amino acid 680 along with an Apa LI restriction enzyme site (5′ sense: SEQ ID NO 5; 5′ antisense: SEQ ID NO 6; 3′ sense: SEQ ID NO 7; 3′ antisense: SEQ ID NO 8).
(§1) The amplified 5′ and 3′ sections of each human dominant negative TLR was inserted into pCR-Blunt II-TOPO for sequence verification. The 5′ and 3′ sections were joined together when subcloned into pIRES (Clontech, Palo Alto, Calif.) for expression in mammalian cells.
(§2) THP-1 cells (maintained at cell number less than 1×10^6 cells/ml) were co-transfected with the plamid vector containing either the TLR6DN or TLR7DN construct and with a murine H2K^k plasmid (Miltenyi Biotec Inc., Auburn, Calif.) in a 4:1 ratio of TLR plasmid to H2K^k plasmid. Transfection of THP-1 cells was carried out using the transfection reagent FuGENE 6 (Roche Diagnostics Corp., Indianapolis, Ind.) according to the manufacturer's specifications. […]
(§3) TNF-α levels were measured with a commercial Human TNF-α ELISA kit (Biosource International, Inc., Camarillo, Calif.) according to the manufacturer's specifications. […]

TLR7 [1] = assay: TNF-α production by THP-1 cells transfected with TLR7DN vs vector control; format: cell-based, human
From the text: The human TLR7 dominant negative construct was generated in a manner similar to that used to generate the human TLR6 dominant negative construct. The proline to histidine mutation for human was introduced at amino acid 932 along with a Bam HI restriction enzyme site (5′ sense: SEQ ID NO 9; 5′ antisense: SEQ ID NO 10; 3′ sense: SEQ ID NO 11; 3′ antisense: SEQ ID NO 12).
as §1, §2, §3

TLR7 [2] = biological target: T2, TLR7 (Mus musculus, UniProt P58681); assay: IRM-stimulated TNF-α production by RAW 264.7 cells overexpressing TLR7; format: cell-based, murine
T2 construct: expressed in transfected cells; host or cells: RAW 264.7 (pIRES vector)
T2 sequence (P58681 27-1050): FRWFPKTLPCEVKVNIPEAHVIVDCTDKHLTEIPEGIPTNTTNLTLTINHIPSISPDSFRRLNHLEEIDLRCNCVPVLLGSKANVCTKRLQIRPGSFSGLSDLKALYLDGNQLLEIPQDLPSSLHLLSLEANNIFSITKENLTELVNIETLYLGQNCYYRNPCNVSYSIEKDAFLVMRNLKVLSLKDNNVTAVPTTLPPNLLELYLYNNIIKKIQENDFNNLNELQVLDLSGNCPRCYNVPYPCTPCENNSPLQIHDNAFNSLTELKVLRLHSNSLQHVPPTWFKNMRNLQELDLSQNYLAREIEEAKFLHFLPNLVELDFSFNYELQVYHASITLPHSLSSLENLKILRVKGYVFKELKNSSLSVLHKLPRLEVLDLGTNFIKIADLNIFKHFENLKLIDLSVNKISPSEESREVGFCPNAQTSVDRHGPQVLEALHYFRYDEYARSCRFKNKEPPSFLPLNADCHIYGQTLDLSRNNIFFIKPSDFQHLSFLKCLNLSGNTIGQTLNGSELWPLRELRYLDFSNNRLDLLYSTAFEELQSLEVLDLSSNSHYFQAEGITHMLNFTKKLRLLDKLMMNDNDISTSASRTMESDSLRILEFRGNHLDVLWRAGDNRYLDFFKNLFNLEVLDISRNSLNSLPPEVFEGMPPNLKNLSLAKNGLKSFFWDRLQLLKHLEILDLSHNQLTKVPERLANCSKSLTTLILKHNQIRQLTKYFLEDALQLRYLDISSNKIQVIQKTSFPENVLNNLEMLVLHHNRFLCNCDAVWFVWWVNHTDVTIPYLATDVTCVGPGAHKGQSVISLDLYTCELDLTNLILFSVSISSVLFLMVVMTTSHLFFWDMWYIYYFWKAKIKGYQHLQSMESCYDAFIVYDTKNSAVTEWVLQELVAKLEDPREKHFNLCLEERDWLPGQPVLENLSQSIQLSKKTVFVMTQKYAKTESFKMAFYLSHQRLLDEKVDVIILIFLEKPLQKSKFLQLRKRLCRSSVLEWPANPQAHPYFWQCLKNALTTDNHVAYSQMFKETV
From the text: The murine TLR wild-type vectors were generated by PCR amplification from RAW 264.7 cell cDNA with TLR6 specific primers (sense primer: SEQ ID NO 13; antisense primer: SEQ ID NO 14) or TLR7 specific primers (sense primer: SEQ ID NO 15; antisense primer: SEQ ID NO 16) by Pfu Turbo DNA polymerase kit (Stratagene, La Jolla, Calif.). The PCR products were inserted into pCR-Blunt II-TOPO for sequence verification and then subcloned into pIRES (BD Biosciences Clontech, Palo Alto, Calif.) for expression in mammalian cells.
THP-1 cells or RAW 264.7 cells were cultured and transfected with the wild type TLR 6 or wild type TLR 7 plasmids described above. The transfections were performed as in Example 1 with a 4:1 ratio of wild-type TLR to H2K plasmid (THP-1 cells) or CD4 (RAW 264.7 cells).
RAW 264.7 cells were stimulated with various concentrations of resiquimod and analyzed as described in Example 1. Results are provided in Table 4 and are expressed as fold increase in TNF-α production as compared to control transfected RAW 264.7 cells.

[3] = stimulus 3 μM, 18 hours, relative to vector control

T1 sequence (Q9Y2C9 32-796 P680H): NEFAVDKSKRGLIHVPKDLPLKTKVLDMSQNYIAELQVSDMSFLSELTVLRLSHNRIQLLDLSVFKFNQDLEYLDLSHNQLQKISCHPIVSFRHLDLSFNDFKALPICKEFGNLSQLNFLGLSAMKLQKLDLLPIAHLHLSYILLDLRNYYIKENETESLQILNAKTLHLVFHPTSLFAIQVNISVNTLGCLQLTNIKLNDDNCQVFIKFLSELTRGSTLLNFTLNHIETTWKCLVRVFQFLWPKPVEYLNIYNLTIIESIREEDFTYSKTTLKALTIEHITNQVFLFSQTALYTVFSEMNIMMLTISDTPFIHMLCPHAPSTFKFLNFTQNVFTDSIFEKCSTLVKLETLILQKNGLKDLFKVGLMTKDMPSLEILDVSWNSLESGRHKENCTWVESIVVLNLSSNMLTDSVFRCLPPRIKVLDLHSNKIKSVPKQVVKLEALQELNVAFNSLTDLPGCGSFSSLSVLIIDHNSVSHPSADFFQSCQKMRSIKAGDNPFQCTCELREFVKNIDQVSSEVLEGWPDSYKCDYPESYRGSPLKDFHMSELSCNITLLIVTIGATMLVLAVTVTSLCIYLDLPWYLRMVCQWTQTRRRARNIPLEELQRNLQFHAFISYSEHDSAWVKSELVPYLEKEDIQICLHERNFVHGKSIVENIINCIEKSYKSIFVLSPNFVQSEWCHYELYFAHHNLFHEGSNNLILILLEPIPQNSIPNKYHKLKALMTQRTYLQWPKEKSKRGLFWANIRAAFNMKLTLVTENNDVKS
T1 sequence (O60603 19-784 partner limits assumed): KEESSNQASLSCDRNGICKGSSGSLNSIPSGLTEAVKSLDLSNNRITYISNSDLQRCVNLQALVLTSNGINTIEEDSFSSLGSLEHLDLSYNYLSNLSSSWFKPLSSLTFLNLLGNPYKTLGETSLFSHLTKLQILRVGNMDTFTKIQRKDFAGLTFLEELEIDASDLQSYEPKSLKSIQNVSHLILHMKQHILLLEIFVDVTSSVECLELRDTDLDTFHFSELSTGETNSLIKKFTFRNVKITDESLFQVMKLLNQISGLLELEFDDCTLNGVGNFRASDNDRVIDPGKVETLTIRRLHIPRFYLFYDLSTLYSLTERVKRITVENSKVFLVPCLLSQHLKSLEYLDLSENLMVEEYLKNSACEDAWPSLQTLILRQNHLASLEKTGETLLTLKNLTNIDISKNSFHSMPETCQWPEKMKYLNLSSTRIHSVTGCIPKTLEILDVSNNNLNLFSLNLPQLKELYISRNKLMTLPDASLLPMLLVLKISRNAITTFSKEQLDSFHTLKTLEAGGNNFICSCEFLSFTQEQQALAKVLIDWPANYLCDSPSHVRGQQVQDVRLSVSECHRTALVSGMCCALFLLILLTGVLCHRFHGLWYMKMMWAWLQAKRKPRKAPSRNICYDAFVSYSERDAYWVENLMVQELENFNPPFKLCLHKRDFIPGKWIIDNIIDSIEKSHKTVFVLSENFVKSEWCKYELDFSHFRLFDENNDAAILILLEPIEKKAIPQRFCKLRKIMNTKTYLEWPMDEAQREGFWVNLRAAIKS

For `CCOCc1nc2c(N)nc3ccccc3c2n1CC(C)(C)O` [Resiquimod, 4-amino-2-ethoxymethyl-α,α-dimethyl-1H-imidazo[4,5-c]quinoline-1-ethanol], the “Effect of TLR6DN on stimulus-induced TNF-α production (in words)” value (TLR6; compared to control vector) was “inhibited”, the “TLR6DN % inhibition of TNF-α production” value (TLR6; [3]) was 70.1% and the “Effect of TLR7DN on stimulus-induced TNF-α production (in words)” value (TLR7 [1]; compared to control vector) was “inhibited”. For the same compound, the “TLR7DN % inhibition of TNF-α production” value (TLR7 [1]; [3]) was 55.3%, the “Fold increase in TNF-α production over control, TLR7” value (“Fold increase in TNF-α production” below) (TLR7 [2]; RAW 264.7 overexpressing TLR7, 0.0004 μM) was 14.8 fold and the “Fold increase in TNF-α production” value (TLR7 [2]; RAW 264.7 overexpressing TLR7, 0.001 μM) was 8.9 fold. The “Fold increase in TNF-α production” value (TLR7 [2]; RAW 264.7 overexpressing TLR7, 0.004 μM) was 5.8 fold, the “Fold increase in TNF-α production” value (TLR7 [2]; RAW 264.7 overexpressing TLR7, 0.012 μM) was 3.8 fold and the “Fold increase in TNF-α production” value (TLR7 [2]; RAW 264.7 overexpressing TLR7, 0.037 μM) was 3.5 fold. For the same compound, the “Fold increase in TNF-α production” value (TLR7 [2]; RAW 264.7 overexpressing TLR7, 1 μM) was 1.3 fold, the “Fold increase in TNF-α production” value (TLR7 [2]; RAW 264.7 overexpressing TLR7, 3 μM) was 1.0 fold and the “Fold increase in TNF-α production” value (TLR7 [2]; RAW 264.7 overexpressing TLR7, 10 μM) was 1.5 fold. The “TLR7 agonist character (in words)” value (TLR7 [2]; from TLR7 overexpression in RAW 264.7 cells) was “agonist”.
